Laboratory results from US5451572A (Genentech, Inc., priority 1993, dated 1995).

How the values were obtained:
cervix [1] = settings: infusion of 3000 units in the cervical os; Perezgrovas and Anderson (1982); cited from earlier work
cervix [2] = settings: 2-mg dose in methylcellulose gel; MacLennan et al. (1981); cited from earlier work
rabbit cervix = assay: Efficacy on the ripening of the rabbit cervix; assay type: in vivo; settings: initial study, 300 μg/ml topical formulation, 0.5 ml intravaginal, eighteen hours
Procedure: Mature pregnant female New Zealand rabbits weighing 4.5 to 6.0 kg were studied. […] Both hormones were applied intravaginally by means of a syringe and a catheter in a volume of 0.5 ml. Control animals received the vehicle alone. After 16-18 hours, the animals were sacrificed using a lethal dose of pentobarbital. […] Paraffin sections were cut and stained with hematoxylin/eosin and alcian blue PAS. Sections were evaluated for general morphology, and specifically for the degree of separation of muscular tissue and collagen fibrils in the submucosa and for the presence of characteristic PAS positive giant cells, which are multinucleate cells of macrophage origin that normally infiltrate the cervix during labor. The measurement of giant cells is accomplished using the procedure described by MacLennan et al., Am J. Obstet.

[3] = Reverse phase HPLC stability of liquid relaxin formulations; settings: in Milli-Q water at 5° C., reference material
Procedure: All buffers were made up to isotonicity (0.154 μ) with the addition of NaCl. […] The resulting 135 100-μL-microvials and 90 1.5-ml-vials were placed on stability tests at 5, 25 and 40° C. Samples were assayed at 0, 7, 21, and 30 days by reverse phase HPLC, ELISA, and cyclic AMP assays. In addition to these assays, the samples were also assayed by near UV circular dichroism (near UV CD) and analytical ultracentrifugation (UC) on days 0 and 30.
The resulting nine samples were each sterile filtered, divided into three equal volumes, and loaded into sterile 300 μL glass microvials. The resulting 27 vials containing about 9 mg were placed on stability testing at 5, 25, and 40° C. for up to 40 days. Samples were assayed by an ELISA assay and a C4 reverse-phase HPLC assay on days 0, 7, 14, 28, and 40. The remaining 3 mg of relaxin was kept in Milli-Q water at 5° C. and used as the reference material. […] These observations were repeated on reference samples used in subsequent stability studies. […]
Study 1: The degradation of relaxin as a function of time was monitored by reverse phase HPLC. […] The fraction of the main peak remaining was computed from triplicate samples (when available), and first-order plots of the degradation kinetics of the main HPLG peak for the five formulations shown in Table I (ranging from 3.0 to 7.5) were determined. […]

| Compound | time to increased dilatation of the cervix (cervix [1]) [h] | cervical score (cervix [2]) | morphology of the pregnant cervix (ripening) (rabbit cervix) | stability by reverse phase HPLC [3] |
| --- | --- | --- | --- | --- |
| porcine relaxin | ≤ 8 | improve the cervical score | induce changes in the morphology of the pregnant cervix consistent with ripening | – |
| CC[C@H](C)[C@@H]1NC(=O)[C@H](C)NC(=O)[C@H]([C@@H](C)CC)NC(=O)[C@H](CCC(N)=O)NC(=O)[C@H](C)NC(=O)[C@H](CCCNC(=N)N)NC(=O)[C@H](C(C)C)NC(=O)[C@H](CC(C)C)NC(=O)[C@H](CCC(=O)O)NC(=O)[C@H](CCCNC(=N)N)NC(=O)CNC(=O)[C@@H](NC(=O)[C@H](CC(C)C)NC(=O)[C@H](CCCCN)NC(=O)[C@@H](NC(=O)[C@@H](NC(=O)[C@H](CCC(=O)O)NC(=O)[C@H](CCC(=O)O)NC(=O)[C@H](CCSC)NC(=O)[C@H](Cc2c[nH]c3ccccc23)NC(=O)[C@H](CO)NC(=O)[C@@H](N)CC(=O)O)C(C)C)[C@@H](C)CC)CSSC[C@@H]2NC(=O)[C@@H](NC(=O)[C@H](CCCCN)NC(=O)[C@H](CC(N)=O)NC(=O)[C@H](C)NC(=O)[C@H](CC(C)C)NC(=O)[C@H](C)NC(=O)[C@H](CO)NC(=O)[C@H](Cc3ccc(O)cc3)NC(=O)[C@H](CC(C)C)NC(=O)[C@@H]3CCC(=O)N3)CSSC[C@H](NC(=O)CNC(=O)[C@H](C(C)C)NC(=O)[C@H](Cc3c[nH]cn3)NC2=O)C(=O)N[C@@H]([C@@H](C)O)C(=O)N[C@@H](CCCCN)C(=O)N[C@@H](CCCNC(=N)N)C(=O)N[C@@H](CO)C(=O)N[C@@H](CC(C)C)C(=O)N[C@@H](C)C(=O)N[C@@H](CCCNC(=N)N)C(=O)N[C@@H](Cc2ccccc2)C(=O)N[C@H](C(=O)O)CSSC[C@@H](C(=O)NCC(=O)N[C@@H](CCSC)C(=O)N[C@@H](CO)C(=O)N[C@H](C(=O)N[C@@H](Cc2c[nH]c3ccccc23)C(=O)N[C@@H](CO)C(=O)N[C@@H](CCCCN)C(=O)N[C@@H](CCCNC(=N)N)C(=O)N[C@@H](CO)C(=O)N[C@@H](CC(C)C)C(=O)O)[C@@H](C)O)NC1=O [long relaxin] | – | – | – | stable by reverse phase HPLC for at least five months |
